According to patent publication US20250144067A1, “PERSONALIZED STARVATION THERAPY FOR CANCER” (Faeth Therapeutics, Inc., priority 2021, published 2025):
Structures can show the parent of a compound that is named as a salt. Where two headings read alike, the source gives them in different places.

Tests used:
[1] = system: NCI-H292 lung cancer cells; test: FDA drug screening, complete media vs cholesterol-free media without statin (TABLE 1); assay type: cell-based, human
[2] = system: NCI-H292 lung cancer cells; test: FDA drug screening, complete media vs cholesterol-free media with simvastatin (TABLE 2); assay type: cell-based, human
[3] = Complete minus Cholesterol-free, >0 enhanced anti-cancer activity, about 0 neutral, <0 antagonist
[4] = NCI-H292 cells, cholesterol-free media without statin
[5] = NCI-H292 cells, cholesterol-free media with simvastatin 0.04 μM, cell growth value in FDA drug screen
[6] = NCI-H292 cells, complete media, cell growth value in FDA drug screen
[7] = complete media minus cholesterol-free media + simvastatin, >0 enhanced anti-cancer activity, about 0 neutral, <0 antagonist
[8] = NCI-H292 cells, FDA drug library screen, cholesterol-free media with simvastatin 0.04 μM
[9] = NCI-H292 cells, FDA drug library screen, complete media
[10] = complete vs cholesterol-free media, greater than 0 enhanced anti-cancer activity, about 0 neutral, below 0 antagonists
[11] = Complete minus Cholesterol-free, greater than 0 enhanced anti-cancer activity, about 0 neutral, below 0 antagonists
[12] = NCI-H292 cells in cholesterol-free media without statin
[13] = NCI-H292 cells in complete media
[14] = NCI-H292 cells, cholesterol-free media without statin, FDA drug library screen
[15] = NCI-H292 cells, complete media, FDA drug library screen
[16] = complete vs cholesterol-free media, >0 enhanced anti-cancer activity, about 0 neutral, <0 antagonist
[17] = NCI-H292 cells, drug in cholesterol-free media with simvastatin 0.04 μM
[18] = NCI-H292 cells, drug in complete media
[19] = complete media vs cholesterol-free media + simvastatin (0.04 μM), >0 enhanced anti-cancer activity, about 0 neutral, <0 antagonist
[20] = Complete minus Cholesterol-free, greater than 0 enhanced anti-cancer activity, about 0 neutral, below 0 antagonist
[21] = NCI-H292 cells, FDA drug library screen, cholesterol-free media without statin

Work on `CC(C)(C)C(=O)OCC(=O)[C@H]1CC[C@H]2[C@@H]3CCC4=CC(=O)CC[C@]4(C)[C@H]3CC[C@]12C` [Desoxycorticosterone pivalate] yielded a Cholesterol-free [1] of 1.574, a Complete [1] of 1.04 and a Difference [1] of −0.53. For the same compound, the “Cholesterol-free media + simvastatin (0.04 μM)” value [2] was 1.728, the “Complete Media” value [2] was 1.762 and the Difference [2] was 0.03.
`O=C(O)COCCN1CCN(C(c2ccccc2)c2ccc(Cl)cc2)CC1` (centres unmarked) [Cetirizine (dihydrochloride)] showed a Difference [1, 3] of −0.28, a Cholesterol-free [1, 4] of 1.185 and a Complete ([1]; NCI-H292 cells, complete media) of 0.9092. The “Cholesterol-free media + simvastatin (0.04 μM)” value [2, 5] was 0.9045, the “Complete Media” value [2, 6] was 0.9315 and the Difference [2, 7] was 0.03.
With Clomiphene (citrate) the Difference [1, 3] was −0.25, the Cholesterol-free [1, 4] was 1.001 and the Complete ([1]; NCI-H292 cells, complete media) was 0.7484. For the same compound, the “Cholesterol-free media + simvastatin (0.04 μM)” value [2, 8] was 0.1462, the “Complete Media” value [2, 9] was 1.001 and the Difference [2, 7] was 0.85.
`CC1=NS(=O)(=O)c2cc(Cl)ccc2N1` [Diazoxide] gave a Cholesterol-free [1, 4] of 1.261, a Complete ([1]; NCI-H292 cells, complete media) of 0.9038 and a Difference [1, 10] of −0.36. The “Cholesterol-free media + simvastatin (0.04 μM)” value [2, 5] was 0.9722, the “Complete Media” value [2, 6] was 1.066 and the Difference [2, 7] was 0.09.
Compound `CCOC(=O)[N-]c1cn(N2CCOCC2)n[o+]1` [Molsidomine] has a Difference [1, 11] of −0.60, a Cholesterol-free [1, 12] of 1.343 and a Complete [1, 13] of 0.7419. The “Cholesterol-free media + simvastatin (0.04 μM)” value [2, 8] was 1.15, the “Complete Media” value [2, 9] was 1.6 and the Difference [2, 7] was 0.45.
Compound `CC(S)C(=O)NCC(=O)O` (centres unmarked) [Tiopronin] has a Difference [1, 3] of −0.20, a Cholesterol-free [1, 4] of 0.9241 and a Complete ([1]; NCI-H292 cells, complete media) of 0.7208. The “Cholesterol-free media + simvastatin (0.04 μM)” value [2, 5] was 1.026 and the Difference [2, 7] was 0.12.
With `CC(C)c1ccc2oc3nc(N)c(C(=O)O)cc3c(=O)c2c1` [Amlexanox] the Cholesterol-free [1, 4] was 1.264, the Complete ([1]; NCI-H292 cells, complete media) was 0.8551 and the Difference [1, 10] was −0.41. For the same compound, the “Cholesterol-free media + simvastatin (0.04 μM)” value [2, 8] was 0.7766, the “Complete Media” value [2, 9] was 1.161 and the Difference [2, 7] was 0.38.
`O=C(O)CCCN1CCC(O[C@@H](c2ccc(Cl)cc2)c2ccccn2)CC1` [Bepotastine] gave a Cholesterol-free [1, 14] of 0.9809, a Complete [1, 15] of 1.256 and a Difference [1, 16] of 0.28. The “Cholesterol-free media + simvastatin (0.04 μM)” value [2, 17] was 0.9667, the “Complete Media” value [2, 18] was 0.7639 and the Difference [2, 19] was −0.20.
`CC(C)NCC(O)c1ccccc1Cl` (centres unmarked) [Clorprenaline hydrochloride] was tested, and the Cholesterol-free [1, 14] was 0.6182, the Complete [1, 15] was 1.062 and the Difference [1, 16] was 0.44. The “Cholesterol-free media + simvastatin (0.04 μM)” value [2, 8] was 0.6832, the “Complete Media” value [2, 9] was 0.8199 and the Difference [2, 7] was 0.14.
`FC(F)(F)C(F)(F)C(F)(F)C(F)(F)C(F)(F)C(F)(F)C(F)(F)C(F)(F)Br` [Perflubron] was tested, and the Difference [1, 11] was −0.50, the Cholesterol-free [1, 12] was 1.905 and the Complete [1, 13] was 1.408. For the same compound, the “Cholesterol-free media + simvastatin (0.04 μM)” value [2, 8] was 0.901, the “Complete Media” value [2, 9] was 1.248 and the Difference [2, 7] was 0.35.
Fenoldopam (mesylate) was tested, and the Difference [1, 20] was −0.12, the Cholesterol-free [1, 21] was 0.8131 and the Complete [1, 9] was 0.6882. For the same compound, the “Cholesterol-free media + simvastatin (0.04 μM)” value [2, 17] was 1.028, the “Complete Media” value [2, 18] was 0.7708 and the Difference [2, 19] was −0.26.
`C#CC1(O)CC[C@H]2[C@@H]3CCC4=CC(=O)CC[C@@H]4[C@H]3CC[C@@]21CC` (some centres unmarked) [Norgestrel] was tested, and the Cholesterol-free [1, 4] was 1.349, the Complete ([1]; NCI-H292 cells, complete media) was 1.022 and the Difference [1, 10] was −0.33. The “Cholesterol-free media + simvastatin (0.04 μM)” value ([2]; NCI-H292 cells, FDA library drug in cholesterol-free media with simvastatin 0.04 μM) was 1.456, the “Complete Media” value ([2]; NCI-H292 cells, FDA library drug in complete media) was 1.004 and the Difference [2, 19] was −0.45.
`CCc1ccc(C(=O)C(C)CN2CCCCC2)cc1` (centres unmarked) [Eperisone (Hydrochloride)] was tested, and the Difference [1, 20] was −0.09, the Cholesterol-free [1, 21] was 0.978 and the Complete [1, 9] was 0.8889. The “Cholesterol-free media + simvastatin (0.04 μM)” value [2, 8] was 1.323, the “Complete Media” value [2, 9] was 1.222 and the Difference [2, 19] was −0.10.
Compound `CC(=O)OCC[N+](C)(C)C.[I-]` [Acetylcholine (iodide)] has a Cholesterol-free [1, 4] of 1.351, a Complete ([1]; NCI-H292 cells, complete media) of 1 and a Difference [1, 10] of −0.35. For the same compound, the “Cholesterol-free media + simvastatin (0.04 μM)” value [2, 17] was 1.762, the “Complete Media” value [2, 18] was 1.59 and the Difference [2, 19] was −0.17.
